Test results taken from patent publication US20260042755A1, “GPR6 INVERSE AGONISTS” (MapLight Therapeutics, Inc., priority 2022, published 2026).
pIC50: −log10 of the molar value.

Tests used:
GPR3 = target: T1, GPR3 (Homo sapiens, UniProt P46089); test: GPR3 antagonist functional cAMP assay (LANCE Ultra cAMP TR-FRET, CHO cells stably expressing GPR3); type: cell-based
T1 construct: expressed in transfected cells; host or cells: CHO cells
Procedure, shortened: (§1)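 10,000 cells/well; KRB buffer + 0.1% BSA + 150 μM Ro 20-1724; cpd 45 min, 37 °C, 0.1% DMSO; TR-FRET cAMP, 665 nm; 4-PL fit, normalized to DMSO (0.1%) and reference (100%) → IC50.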

GPR6 = target: T2, GPR6 (Homo sapiens, UniProt P46095); test: GPR6 antagonist functional cAMP assay (LANCE Ultra cAMP TR-FRET, CHO cells stably expressing GPR6); type: cell-based
T2 construct: expressed in transfected cells; host or cells: CHO cells
T2 sequence (P46095 whole entry): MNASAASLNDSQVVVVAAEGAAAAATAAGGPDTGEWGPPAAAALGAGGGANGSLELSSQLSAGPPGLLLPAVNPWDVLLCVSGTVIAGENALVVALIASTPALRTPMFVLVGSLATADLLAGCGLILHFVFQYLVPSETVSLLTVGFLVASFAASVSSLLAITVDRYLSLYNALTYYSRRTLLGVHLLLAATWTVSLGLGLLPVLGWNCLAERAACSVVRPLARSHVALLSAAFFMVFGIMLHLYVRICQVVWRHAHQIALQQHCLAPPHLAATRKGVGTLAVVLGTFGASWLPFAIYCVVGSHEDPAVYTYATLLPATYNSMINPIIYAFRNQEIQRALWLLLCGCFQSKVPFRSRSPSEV
Procedure, shortened: as §1

[1] = CHO cells stably expressing GPR3, cAMP assay (Example 24)
[2] = CHO cells stably expressing GPR6, cAMP assay (Example 24)
[3] = CHO cells stably expressing GPR3, cAMP assay
[4] = CHO cells stably expressing GPR6, cAMP assay
[5] = procedure as described in Example 24

T1 sequence (P46089 whole entry, species assumed): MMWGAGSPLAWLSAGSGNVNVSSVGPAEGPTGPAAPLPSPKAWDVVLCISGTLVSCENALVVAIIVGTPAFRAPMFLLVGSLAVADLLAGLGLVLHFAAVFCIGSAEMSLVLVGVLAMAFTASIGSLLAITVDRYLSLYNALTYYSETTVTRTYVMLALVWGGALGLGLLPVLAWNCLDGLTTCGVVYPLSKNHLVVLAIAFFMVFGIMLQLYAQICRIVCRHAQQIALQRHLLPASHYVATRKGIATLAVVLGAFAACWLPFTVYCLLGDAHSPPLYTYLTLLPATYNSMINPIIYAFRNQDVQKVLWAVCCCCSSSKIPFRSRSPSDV

| SMILES | pIC50 (GPR3; [1]) | pIC50 (GPR6; [2]) | further results |
| --- | --- | --- | --- |
| COC1C=C(c2nc3c(nc2N2CCC(Oc4ccc(F)cc4F)CC2)CCN(C(C)=O)C3)CCC1 (stereo not drawn) [Compound 247, 1-{2-[4-(2,4-difluorophenoxy)piperidin-1-yl]-3-(3-methoxycyclohex-1-en-1-yl)-5H,6H,7H,8H-pyrido[3,4-b]pyrazin-6-yl}ethan-1-one] | 4.52 to 6.00 | 6.00 to 7.00 | – |
| CC(=O)N1CCc2nc(N3CCC([C@@H](F)c4ccc(F)cc4F)CC3)c(-c3cnn(C)c3)nc2C1 (single isomer, unassigned) [Compound 659] | – | – | pIC50 (GPR3; procedure of Example 24): 6.00 to 7.00; pIC50 (GPR6; procedure of Example 24): > 7.00 |
| O=C(N1CCc2nc(N3CCC(Oc4ccc(F)cc4F)CC3)c(-c3cn[nH]c3)nc2C1)N1CC(O)C1 [Compound 206, 1-{2-[4-(2,4-difluorophenoxy)piperidin-1-yl]-3-(1H-pyrazol-4-yl)-5H,6H,7H,8H-pyrido[3,4-b]pyrazine-6-carbonyl}azetidin-3-ol] | 4.52 to 6.00 | 6.00 to 7.00 | – |
| COCc1cccc(-c2nc3c(nc2N2CCC(Oc4ccc(F)cc4F)CC2)CCN(C(C)=O)C3)n1 [Compound 161, 1-{2-[4-(2,4-difluorophenoxy)piperidin-1-yl]-3-[6-(methoxymethyl)pyridin-2-yl]-5H,6H,7H,8H-pyrido[3,4-b]pyrazin-6-yl}ethan-1-one] | 4.52 to 6.00 | 4.52 to 6.00 | – |
| CC(C)(O)COc1cc2nc(-c3cnn(CF)c3)c(N3CCN(Cc4ccc(F)cc4F)CC3)nc2cn1 [Compound 798, 1-(3-{4-[(2,4-difluorophenyl)methyl]-1-piperazinyl}-2-[1-(fluoromethyl)-4-pyrazolyl]-1,4,6-triaza-7-naphthyloxy)-2-methyl-2-propanol] | – | – | pIC50 (GPR3; procedure of Example 24): 4.52 to 6.00; pIC50 (GPR6; procedure of Example 24): 6.00 to 7.00 |
| CC(=O)N1CCc2nc(N3CCC(Oc4ccccc4F)CC3)c(-c3cnn(C)c3)nc2C1 [Compound 420, 1-{2-[4-(2-fluorophenoxy)piperidin-1-yl]-3-(1-methyl-1H-pyrazol-4-yl)-5H,6H,7H,8H-pyrido[3,4-b]pyrazin-6-yl}ethan-1-one] | 4.52 to 6.00 | 6.00 to 7.00 | – |
| CC(=O)N1CCc2nc(N3CCN(Cc4ccn[nH]4)CC3)c(-c3cnn(C)c3)nc2C1 [Compound 524, 1-[3-(1-methyl-4-pyrazolyl)-2-{4-[(5-pyrazolyl)methyl]-1-piperazinyl}-5,6,7,8-tetrahydro-1,4,6-triaza-6-naphthyl]-1-ethanone] | – | – | pIC50 (GPR3; [3]): ≤ 4.52; pIC50 (GPR6; [4]): ≤ 4.52 |
| CC1CN(Cc2ccc(F)cc2F)CCN1c1nc2ccncc2nc1-c1cn[nH]c1 (single isomer, unassigned) [Compound 45, 4-[(2,4-difluorophenyl)methyl]-2-methyl-1-[3-(1H-pyrazol-4-yl)pyrido[3,4-b]pyrazin-2-yl]piperazine] | – | – | pIC50 (GPR3; [5]): 4.52 to 6.00; pIC50 (GPR6; [5]): 4.52 to 6.00 |
| CC(=O)N1CCc2nc(N3CCC(C(=O)Nc4ccc(F)cc4F)C3)c(-c3cnn(C)c3)nc2C1 (stereo not drawn) [Compound 365, 1-[6-acetyl-3-(1-methyl-1H-pyrazol-4-yl)-5H,6H,7H,8H-pyrido [3,4-b]pyrazin-2-yl]-N-(2,4-difluorophenyl)pyrrolidine-3-carboxamide] | – | – | pIC50 (GPR3; procedure of Example 24): ≤ 4.52; pIC50 (GPR6; procedure of Example 24): ≤ 4.52 |
| COc1cncc(-c2nc3cnccc3nc2N2CC3(CC(Oc4ccc(F)cc4F)C3)C2)n1 [Compound 92, 2-(6-(2,4-difluorophenoxy)-2-azaspiro[3.3]heptan-2-yl)-3-(6-methoxypyrazin-2-yl)pyrido[3,4-b]pyrazine] | ≤ 4.52 | 4.52 to 6.00 | – |
| CCOc1ccc(OC2CCN(c3nc4c(nc3-c3cnn(C)c3)CN(C(C)=O)CC4)CC2)c(F)c1 [Compound 504, 1-{2-[4-(4-ethoxy-2-fluorophenoxy)-1-piperidyl]-3-(1-methyl-4-pyrazolyl)-5,6,7,8-tetrahydro-1,4,6-triaza-6-naphthyl}-1-ethanone] | – | – | pIC50 (GPR3; [3]): 4.52 to 6.00; pIC50 (GPR6; [4]): 6.00 to 7.00 |
| CC(C)(O)[C@](C)(O)c1cc2nc(N3CCN(Cc4ccc(F)cc4F)CC3)c(-c3cnn(C4CC4)c3)nc2cn1 (single isomer, unassigned) [Compound 666] | – | – | pIC50 (GPR3; procedure of Example 24): 4.52 to 6.00; pIC50 (GPR6; procedure of Example 24): 6.00 to 7.00 |
| CCn1cc(-c2nc3cnc([C@](C)(O)C(C)(C)O)cc3nc2N2CCN(Cc3ccc(F)cc3F)CC2)cn1 (single isomer, unassigned) [Compound 697] | – | – | pIC50 (GPR3; procedure of Example 24): 4.52 to 6.00; pIC50 (GPR6; procedure of Example 24): 6.00 to 7.00 |
| CC(C)(O)[C@H](O)c1cc2nc(N3CCC(Oc4ccc(F)cc4F)CC3)c(-c3cnn(CF)c3)nc2cn1 (single isomer, unassigned) [Compound 596] | – | – | pIC50 (GPR3; [3]): 4.52 to 6.00; pIC50 (GPR6; [4]): 6.00 to 7.00 |
| CC(=O)N1CCc2nc(N3CC=CC3)c(-c3cnn(C)c3)nc2C1 [Compound 451, 1-[2-(2,5-dihydro-1H-pyrrol-1-yl)-3-(1-methyl-1H-pyrazol-4-yl)-5H,6H,7H,8H-pyrido[3,4-b]pyrazin-6-yl]ethan-1-one] | 4.52 to 6.00 | ≤ 4.52 | – |
| CC(=O)N1CCc2nc(N3CCC(Oc4ccc(F)cc4F)CC3)c(-c3cnsc3)nc2C1 [Compound 8, 1-{2-[4-(2,4-difluorophenoxy)piperidin-1-yl]-3-(1,2-thiazol-4-yl)-5H,6H,7H,8H-pyrido[3,4-b]pyrazin-6-yl}ethan-1-one] | – | – | pIC50 (GPR3; [5]): 4.52 to 6.00; pIC50 (GPR6; [5]): 6.00 to 7.00 |
| CCn1cc(-c2nc3c(nc2N2CCC(Oc4ccc(F)cc4F)CC2)CCN(C(=O)C(C)(O)CO)C3)cn1 (stereo not drawn) [Compound 519, 1-{2-[4-(2,4-difluorophenoxy)-1-piperidyl]-3-(1-ethyl-4-pyrazolyl)-5,6,7,8-tetrahydro-1,4,6-triaza-6-naphthyl}-2,3-dihydroxy-2-methyl-1-propanone] | – | – | pIC50 (GPR3; [3]): 4.52 to 6.00; pIC50 (GPR6; [4]): 6.00 to 7.00 |
| COc1cccc(-c2nc3c(nc2N2CCC(Oc4ccc(F)cc4F)CC2)CCN(C(C)=O)C3)n1 [Compound 86, 1-(2-(4-(2,4-difluorophenoxy)piperidin-1-yl)-3-(6-methoxypyridin-2-yl)-7,8-dihydropyrido[3,4-b]pyrazin-6(5H)-yl)ethan-1-one] | 4.52 to 6.00 | 6.00 to 7.00 | – |
| CC(=O)N1CCc2nc(N3CCC(=Cc4ccccc4)CC3)c(-c3cnn(C)c3)nc2C1 [Compound 646, 1-[2-(4-benzylidene-1-piperidyl)-3-(1-methyl-4-pyrazolyl)-5,6,7,8-tetrahydro-1,4,6-triaza-6-naphthyl]-1-ethanone] | – | – | pIC50 (GPR3; procedure of Example 24): 4.52 to 6.00; pIC50 (GPR6; procedure of Example 24): 6.00 to 7.00 |
| CC(=O)N1CCc2nc(N3CCC(Oc4ccc(Cl)cc4F)CC3)c(-c3cnn(C)c3)nc2C1 [Compound 456, 1-{2-[4-(4-chloro-2-fluorophenoxy)piperidin-1-yl]-3-(1-methyl-1H-pyrazol-4-yl)-5H,6H,7H,8H-pyrido[3,4-b]pyrazin-6-yl}ethan-1-one] | 4.52 to 6.00 | 6.00 to 7.00 | – |
| COc1cccc(-c2nc3cnccc3nc2N2CCN(Cc3ccc(S(C)(=O)=O)cc3F)CC2)n1 [Compound 29, 1-[(2-fluoro-4-methanesulfonylphenyl)methyl]-4-[3-(6-methoxypyridin-2-yl)pyrido[3,4-b]pyrazin-2-yl]piperazine] | – | – | pIC50 (GPR3; [5]): 6.00 to 7.00; pIC50 (GPR6; [5]): 4.52 to 6.00 |
| CC(=O)N1CC=C(c2nc3c(nc2N2CCC(Oc4ccc(F)cc4F)CC2)CCN(C(C)=O)C3)C1 [Compound 72, 1-(3-{6-acetyl-2-[4-(2,4-difluorophenoxy)piperidin-1-yl]-5H,6H,7H,8H-pyrido[3,4-b]pyrazin-3-yl}-2,5-dihydro-1H-pyrrol-1-yl)ethan-1-one] | 4.52 to 6.00 | 4.52 to 6.00 | – |
| CCn1cc(-c2nc3c(nc2N2CCN(C(=O)c4ccc(Cl)cc4)CC2)CCN(C(C)=O)C3)cn1 [Compound 549, 1-{2-[4-(p-chlorobenzoyl)-1-piperazinyl]-3-(1-ethyl-4-pyrazolyl)-5,6,7,8-tetrahydro-1,4,6-triaza-6-naphthyl}-1-ethanone] | – | – | pIC50 (GPR3; [3]): 4.52 to 6.00; pIC50 (GPR6; [4]): 6.00 to 7.00 |
| CC(=O)N1CCc2nc(N3CCN(Cc4ccc[nH]c4=O)CC3)c(-c3cnn(C)c3)nc2C1 [Compound 531, 3-({4-[6-acetyl-3-(1-methyl-4-pyrazolyl)-5,6,7,8-tetrahydro-1,4,6-triaza-2-naphthyl]-1-piperazinyl}methyl)-2(1H)-pyridinone] | – | – | pIC50 (GPR3; [3]): ≤ 4.52; pIC50 (GPR6; [4]): ≤ 4.52 |

Second part, led by results:

| pIC50 (GPR3; [1]) | pIC50 (GPR6; [2]) | SMILES | further results |
| --- | --- | --- | --- |
| 4.52 to 6.00 | > 7.00 | CC(=O)N1CCc2nc(N3CCC(Oc4ccc(F)cc4F)CC3)c(-c3cnn(CF)c3)nc2C1 [Compound 439, 1-{2-[4-(2,4-difluorophenoxy)piperidin-1-yl]-3-[1-(fluoromethyl)-1H-pyrazol-4-yl]-5H,6H,7H,8H-pyrido[3,4-b]pyrazin-6-yl}ethan-1-one] | – |
| ≤ 4.52 | ≤ 4.52 | Cn1cc(-c2nc3cnccc3nc2N2CCN(CC3CCCCO3)CC2)cn1 (stereo not drawn) [Compound 246, 1-[3-(1-methyl-1H-pyrazol-4-yl)pyrido[3,4-b]pyrazin-2-yl]-4-[(oxan-2-yl)methyl]piperazine] | – |
| 4.52 to 6.00 | 4.52 to 6.00 | Fc1ccc(OC2CCN(c3nc4ccncc4nc3-c3ncn[nH]3)CC2)c(F)c1 [Compound 96, 4-(2,4-difluorophenoxy)-1-[3-(1H-1,2,4-triazol-5-yl)pyrido[3,4-b]pyrazin-2-yl]piperidine] | – |
| 6.00 to 7.00 | 6.00 to 7.00 | Cn1cc(-c2nc3c(C#N)nccc3nc2N2CCC(Oc3ccc(F)cc3F)CC2)cn1 [Compound 409, 2-[4-(2,4-difluorophenoxy)piperidin-1-yl]-3-(1-methyl-1H-pyrazol-4-yl)pyrido[3,4-b]pyrazine-5-carbonitrile] | – |
| 4.52 to 6.00 | 6.00 to 7.00 | Cn1cc(-c2nc3cnc(C#N)cc3nc2N2CCN(Cc3ccc(F)cc3F)CC2)cn1 [Compound 216, 2-{4-[(2,4-difluorophenyl)methyl]piperazin-1-yl}-3-(1-methyl-1H-pyrazol-4-yl)pyrido[3,4-b]pyrazine-7-carbonitrile] | – |
| 4.52 to 6.00 | 6.00 to 7.00 | CCn1cc(-c2nc3c(nc2N2CCC(Oc4ccc(F)cc4F)CC2)CCN(S(C)(=N)=O)C3)cn1 (stereo not drawn) [Compound 485, 2-(4-(2,4-difluorophenoxy)piperidin-1-yl)-3-(1-ethyl-1H-pyrazol-4-yl)-6-(S-methylsulfonimidoyl)-5,6,7,8-tetrahydropyrido[3,4-b]pyrazine] | – |
